# Assay results: patent publication US8388950B2, “Coenzyme Q10-containing water-soluble composition and process for production thereof” (Kaneka Corporation, priority 2005, dated 2013)
# Assay: DSC determination of the crystallization peak of coenzyme Q10 (effect of preventing crystallization)
# Assay type: physicochemical
# Conditions: held at 80° C. 10 minutes, cooled to −50° C. at −5° C./min
# Protocol: The component materials shown in Table 1 were warmed and dissolved at 60° C., and weighed out the appropriate amount on a measuring aluminum pan to make samples for DSC determination.
# Using the samples obtained in Reference Examples 1 to 10, the effect of preventing coenzyme Q10 crystallization derived from a lipophilic sucrose fatty acid ester was determined by DSC (differential scanning calorimetry).
# Detector: DSC6220 (manufactured by SII Nano Technology Inc.)
# Determination condition: the crystallization peak (exothermic peak) of coenzyme Q10 was determined after retaining the samples at 80° C. for 10 minutes and then cooling them to −50° C. at a cooling rate of −5° C./rain.
compound,measurement,value
"COC1=C(OC)C(=O)C(C/C=C(\C)CC/C=C(\C)CC/C=C(\C)CC/C=C(\C)CC/C=C(\C)CC/C=C(\C)CC/C=C(\C)CC/C=C(\C)CC/C=C(\C)CCC=C(C)C)=C(C)C1=O [compound 4, Coenzyme Q10]",DSC exothermic peak,−11.4 °C
